One substance from patent publication US7196063B1, “Peptides and pharmaceutical compositions comprising same” (NST NeuroSurvival Technologies Ltd., priority 1999, dated 2007) can be followed below.

Where two headings read alike, the source gives them in different places.

In one test the test system is apoptotic HeLa cells. The procedure:
One of the final steps of both intrinsic and extrinsic path-ways of coagulation, is the generation of thrombin from prothrombin. Thrombin is the final protease generated in the sequence of coagulation reaction, and its activity entails conversion of fibrinogen to fibrin, thus forming the clot. Generation of thrombin on the pro-coagulant surface of apoptotic cells was assayed (according to Bombeli T. et al., 1997, Blood 89(7), 2429–2442), by determining its activity, using the chromogenic substrate S-2366 (from Chromogenix, Sweden). Samples of pro-coagulant cells (HeLa cells treated with 500 μM of DA for 18 hours) were used for the assay. Reaction mixture, in a plastic 1 ml cuvette, contained 100 μl of cells (1.5×10^5), 350 μl of HBS (150 mM NaCl, 10 mM Hepes pH 7), and 150 μl of normal control plasma, that was re-calcified with 300 μl of 25 mM CaCl2. The reaction was started by addition of the substrate S-2366 to a final concentration of 0.2 mM, and the kinetics of thrombin activity was determined by optical density at OD405. Data was collected and analyzed by the Swift kinetics software (Pharmacia).

For another test, the system named is activated platelets. The note with it: 2 μM. On the procedure: Exposure of PS on the outer leaflet of platelets upon their activation is essential for efficient activation of coagulation factors. […] Fresh platelets were received from the Blood Bank in Beilinson Hospital, Israel. The platelets were centrifuged (10 minutes, 2700×g), washed and re-suspended in platelets buffer (137 mM NaCl, 2 mM MgCl2, 0.5 mM NaPi, 5 mM glucose and 20 mM Hepes pH 7.4). 100 μl of platelets were diluted 10 fold and activated for 10 minutes with 2 μM of the calcium ionophore A23187 in the presence of 5 mM of CaCl2. […] The platelets were then washed with platelets buffer and incubated with 5 μg/ml of streptavidin conjugated to fluorescein (FITC). Incubation was for 15 minutes at room temperature, followed by a wash and suspention in platelets buffer. The labeled platelets were subjected to a FACS analysis as described above.

“Myristate-KVSFFCKNKEKKC-K (SEQ ID NO:1) (biotin) [NST513]”: the “change of time needed for obtaining 50% of thrombin activity (factor)” value in the test on apoptotic HeLa cells (5 μM) was 1.5; in the test with apoptotic HeLa cells (10 μM), 2.6. Besides, the “thrombin generation by apoptotic cells” value in the test on apoptotic HeLa cells (10 μM) is “rate of thrombin generation was also inhibited”; in the test with apoptotic HeLa cells (25 μM) it was “fully block”; in the test with apoptotic HeLa cells (25–50μM), “Total blockage of thrombin generation”. The “thrombin activity (reflecting thrombin generation), dose response” value in the test on apoptotic HeLa cells (5–50 μM) was “effectively inhibited”. In addition, in the test with activated platelets, the “binding intensity (FITC mean value), activated vs control non-treated platelets” value was determined as 20 times. The “increase in the percentage of platelets stained with FITC upon activation” value in the test with activated platelets (activated (A23187) vs control platelets) turned out to be 6 fold.
